# Measured values published in patent publication US12029715B2, “Precursor compounds for providing retinoids of the vitamin A5 pathway and uses thereof” (UNIVERSITY OF DEBRECEN, priority 2015, dated 2024).
# “Also recorded” adds a separate entry of the source.
# Legend:
# hRXRα LBD = biological target: T1, hRXRα LBD (Homo sapiens, UniProt P19793); experiment: ESI-MS in non-denaturing conditions, binding to RXR LBD; set-up: cDNAs encoding hRXRα LBD (223-462); His-tag (N); made in house; details: 5-fold molar excess of ligand
# T1 sequence (P19793 223-462): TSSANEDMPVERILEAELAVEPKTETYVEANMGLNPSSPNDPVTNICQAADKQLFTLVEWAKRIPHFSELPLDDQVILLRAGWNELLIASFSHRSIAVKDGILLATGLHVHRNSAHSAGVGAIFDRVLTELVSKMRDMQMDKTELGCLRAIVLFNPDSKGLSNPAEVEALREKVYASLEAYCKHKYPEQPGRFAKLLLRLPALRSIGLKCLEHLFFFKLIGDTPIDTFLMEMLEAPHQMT
# Description: (§1) cDNAs encoding hRXRα LBD (223-462), hRARα LBD (153-421), hRARBβ LBD (169-414) and hRARγ LBD (178-423) were cloned into pET28b vector to generate N-terminal Histag fusion proteins. Purification was carried out as previously described [Lippert W P et al. 2009, Osz J, et al. 2012], including a metal affinity chromatography and a gel filtration. For details of sample preparation and ESI-MS analyses see below.
# cDNAs encoding hRXRαLBD (223-462), hRARαLBD (153-421), hRARβLBD (169-414) and hRARγ LBD (178-423) were cloned into pET28b vector to generate N-terminal His-tag fusion proteins. Purification was carried out as previously described [Lippert W P et al. 2009, Osz J, et al. 2012], including a metal affinity chromatography and a gel filtration. Prior to ESI-MS analysis, samples were desalted on Zeba Spin desalting columns (Pierce) in 150 mM ammonium acetate (pH 8.0). ESI-MS measurements were performed on an electrospray time-of-flight mass spectrometer (MicrOTOF, Bruker Daltonics). Purity and homogeneity of the proteins were verified by mass spectrometry in denaturing conditions (samples were diluted at 2 pmol/μl in a 1:1 water-acetonitrile mixture (v/v) acidified with 1% formic acid). The mass measurements of the noncovalent complexes were performed in ammonium acetate (200 mM; pH 8.0). Samples were diluted to 8 pmol/ml in the previous buffer and continuously infused into the ESI ion source at a flow rate of […] through a Harvard syringe pump (Harvard Apparatus model 11). A careful optimization of the interface parameters was performed to obtain the best sensitivity and spectrum quality without affecting the noncovalent complexes stability. In particular, the capillary exit (CE) ranged from 60 to 150 V with a vacuum interface pressure of 2.3 mbar and was set to 80 V. For ligand-interaction analysis, ligands were added to the proteins in a 5-fold molar excess.
# hRARα, β and γ LBDs = experiment: ESI-MS in non-denaturing conditions, binding to RAR LBD isotypes; set-up: species or system human; details: 5-fold molar excess of ligand
# Description: as §1
# cDNAs encoding hRXRαLBD (223-462), hRARαLBD (153-421), hRARβLBD (169-414) and hRARγ LBD (178-423) were cloned into pET28b vector to generate N-terminal His-tag fusion proteins. Purification was carried out as previously described [Lippert W P et al. 2009, Osz J, et al. 2012], including a metal affinity chromatography and a gel filtration. Prior to ESI-MS analysis, samples were desalted on Zeba Spin desalting columns (Pierce) in 150 mM ammonium acetate (pH 8.0). ESI-MS measurements were performed on an electrospray time-of-flight mass spectrometer (MicrOTOF, Bruker Daltonics). Purity and homogeneity of the proteins were verified by mass spectrometry in denaturing conditions (samples were diluted at 2 pmol/μl in a 1:1 water-acetonitrile mixture (v/v) acidified with 1% formic acid). The mass measurements of the noncovalent complexes were performed in ammonium acetate (200 mM; pH 8.0). […]
# [1] = test system: differentiating monocyte-derived human dendritic cells; experiment: DNA microarray in differentiating monocyte-derived dendritic cells; type: cell-based
# Description: The generation and transcriptional analysis of differentiating DCs were performed as described previously [Szeles L et al. 2010]. Microarray data were deposited into the Gene Expression Omnibus database under accession no. GSE48573.
# The generation and analysis of differentiating DCs were performed as described previously [Szeles L et al. 2010] with minor modifications. Briefly, human monocytes were isolated from healthy volunteer's buffy coat, obtained with a Regional Ethical Board permit from the Regional Blood Bank and isolated by Ficoll gradient centrifugation followed by immunomagnetic cell separation, and were cultured in the presence of GM-CSF and IL-4. Differentiating DCs were stimulated 18 h after […] by various agonists for 12 h. The ligands were used in the following concentrations: 10 μM (R)-9CDHRA, 10 μM (S)-9CDHRA, 1 μM 9cisRA, 100 nM LG100268, 1 μM GW3965, 1 μM Rosiglitazone (RSG), 1 μM GW1516, 100 nM AM580. Experiments were performed in biological triplicates. Samples were processed and hybridized to Human Genome U133 Plus 2.0 Arrays. Data were analysed using to GeneSpring 12.6.1 software. In detail, normalization was performed using RMA summarization algorithm. […] Microarray data were deposited into the Gene Expression Omnibus database under accession no. GSE48573.
# [2] = test system: oligodendrocytes cell line 158N; experiment: Metabolic conversion in mouse oligodendrocytes cell culture (LC-MS); type: in vitro ADME
# Description: Normal immortalized oligodendrocytes cell line 158N was cultured as previously reported (Feutz et al., 2001). Expediently, cells were cultured in supplemented with 5% calf serum (Invitrogen, France). When cells attained 70% of confluency they were treated with 10^−2 M ethanol solution of one of the following compounds: 9CDHROL, 9CDHROL-acetate, 9CDHRA-ethyl ester. 9CDHRA and ethanol as controls, vehicle treatment. 18 h after treatment cells were collected in amber Eppendorf tubes and stored at −80° C. until analyses. Treatments and cell collection were carried out in light limited conditions to avoid photolysis of retinoids.
# (§2) In a slight variant of the method, after reaching confluency of 80% cells were treated with 9CDHROL, 9CDH-retinyl ester (acetate, 9CDHROL-ES), 9CDHRA, 9CDH-retinoyl ester, (ethyl ester, 9CDHRA-ES), ATROL, 9CDHBC, 9CBC and ATBC at a concentration of 10^−6 M or ethanol at corresponding concentration was used as control vehicle treatment. Cells were harvested 18 hours later, centrifuged, weighted, frozen in liquid nitrogen and stored at −80° C. until analyses.
# (§3) High performance liquid chromatography mass spectrometry (LC-MS) was carried out as described in Example 4.
# [3] = Mouse oral supplementation, retinoid levels in serum, brain and liver (LC-MS); type: in vivo; details: mice
# Description: For metabolic analyses ATROL, 9CDHROL, 9CDHBC and control solutions were prepared as described above. Single per os application of the dose of 40 mg/kg of each substance was used to treat mice in the evening and samples were collected 11 h later in the light protected conditions, weighted, frozen in liquid nitrogen and stored at −80° C. until analyses. Serum was prepared and immediately stored in brown vials at −80° C., till further analysis.
# Accordingly, for sample preparation 100 mg of the material (if samples were under 100 mg, water was added up to the used standard weight: 100 mg) or 100 μl serum was diluted with a threefold volume of isopropanol, the tissues were minced by scissors, vortexed for 10 seconds, put in a ultrasonic bath for 5 minutes, shaken for 6 minutes and centrifuged at 13000 rpm in a Heraeus BIOFUGE Fresco at +4° C. […] The dried extracts were resuspended with 30 μl of methanol—MTBE (50-50) and transferred into the autosampler and 10 μl subsequently analysed.
# Mouse brain samples were prepared according to the procedure described above. Briefly, after single per os application of the dose of 40 mg/kg of 9CDHROL (or other cited substances) in the evening mice were sacrificed after 11 hours and tissues samples including brain were dissected under light-protection conditions, weighted, frozen in liquid nitrogen and stored at −80° C. until analyses. Serum was prepared and immediately stored in brown vials at −80° C., till further analysis.
# For mouse supplementation experiments we treated n=6 mice per os with 40 mg/kg bw 9CDHROL and 11 h after the treatment the mice were killed and blood, brain and liver was taken. After centrifugation of the drawn blood, serum was obtained.
# [4] = test system: human oligodendrocytes cell cultures; experiment: Metabolic conversion in human oligodendrocytes cell culture (HPLC-MS); type: in vitro ADME; details: 10^−6M, n=3
# Description: as §2, §3
# 9CDHRA levels including standard deviation in human oligodendrocytes cultures were assessed using HPLC-MS analysis after control treatment using ethanol (CTRL), as well as ATROL treatment (ATROL), 9CBC treatments (9CBC), ATBC treatments (ATBC), 9CDHBC treatment (9CDHBC), 9CDHROL treatments (9CDHROL), 9CDHROL-ester treatments (9CDHROL-ES), 9CDHRA treatments (9CDHRA) or 9CDHRA-ester treatments (9CDHRA-ES), each with 10^−6M concentration and n=3 (FIG. 14D).
# [5] = test system: Rbp1−/−, Rxrγ−/− and WT mice; experiment: Forced swim test after acute treatment; type: in vivo, mouse; details: Rbp1−/− mice, acute i.p. treatment 5-6 h before the test
# Description: (§4) The forced swim paradigm was carried out between 1 pm and 4 pm in a 3-litre glass beaker half-filled with water at 22-23° C. (the water depth was 17 cm). All mice were tested only once in this task. To this end, each mouse was lowered gently into the water and the time of immobility was scored during a 6-minute testing period. The mouse was judged immobile when it floated in an upright position and made only small movements to keep its head above the water. After 6 min, the mouse was taken out of the water, left to dry under a red light lamp and returned to its home cage. The immobility scores of each animal were used as an index of despair behavior.
# (§5) Vehicle treatments consisted of 3% ethanol and 3% DMSO solution in sunflower oil. Treatments were administered by intraperitoneal injections at volume/weight ratio 3 ml/kg between 8-10 am and 5-6 h before the test as previously validated (Wietrzych-Schindler M, 2011).
# as §4, with “paradigm (Dalvi and Lucki, 1999)” for “paradigm”, “2-litre” for “3-litre”
# Rbp1−/− and Rxrγ−/− mice = experiment: Y-maze spontaneous alternation; type: in vivo, mouse; details: 5-6 hours prior to testing
# Description: The Y-maze apparatus and the procedure were as previously described (Wietrzych et al., 2005). Briefly, each mouse was placed at the end of one arm and allowed to explore freely the apparatus for 5 min, with the experimenter out of the animal's sight. Spontaneous alternation performance (SAP) was assessed visually by scoring the pattern of entries into each arm and expressed as a percentage of total number of entries, discounting the first two visits. Total entries were scored as an index of ambulatory activity in the Y-maze, but none of tested mice had to be excluded due to low locomotor performance (score below 9 entries).
# as §5
# [6] = test system: Rbp1−/−, Rxrγ−/− and WT mice; experiment: Delayed non-match to place (DNMTP) working memory task in the T-maze; type: in vivo, mouse; details: ITI of 6 min
# Description: Behaviorally naïve groups of mice were tested in the DNMTP (delayed non-match to place) procedure in the T-maze according to a protocol previously described (Wietrzych et al., 2005), with modifications to facilitate pharmacological tests (Wietrzych-Schindler et al., 2011). Spontaneous alternation was evaluated in the Ymaze apparatus according to protocol described in detail below.
# Specifically, in the present protocol, animals were first trained for 10 consecutive days with minimal inter-trial intervals (ITI) of about 15 sec, which was necessary to attain the criterion of 90% or more of correct choices during […] consecutive days (days 9-10). After this period ITI was increased semi-randomly by blocks of 3-6 min during 5 consecutive days (days 11-15 indicated) to determine “test ITI” for each animal, which was defined as the shortest ITI at which mice perform at chance level. From day 16 mice were tested using corresponding “test ITI” delays following vehicle injection on the day 16 (to test for the effect of vehicle alone) and following 9CDHROL (40 mg/kg) injection on day 17. Three mice were excluded from testing since their latency to choose the arm during the retention phase exceeded 3 min in more than one trial/day on three consecutive days (exclusion criterion). On the day 18 mice were again injected (IP) with 9CDHROL (40 mg/kg) and 9 hours later sacrificed for chemical analyses. Mice which received vehicle injections on three consecutive days were used as vehicle-treated controls for analyses of 9CDHROL metabolism. An additional group of 3 naïve mice was also injected with 9CDHROL (40 mg/kg) to test for 9CDHROL metabolism following acute treatment.
# In this variant, animals were first trained for 9 consecutive days of with minimal inter-trial intervals (ITI) of about 15 sec, which was necessary to attain the criterion of 90% or more of correct choices during three consecutive days (days 7-9). After this period ITI was increased semi-randomly to 180, 360, 720 and for some WT mice also 1080 seconds so that each animal was tested 6 times with each interval during four consecutive days (days 10-13 indicated). From day 13 mice were tested only twice per week beginning with training session on day one (with minimal, 15 sec ITIs) and testing pharmacological treatments on the second day. Only one pharmacological treatment was tested every 7 days. To test pro-mnemonic activities of UVI2108 and (R)-9CDHRA inventors used a minimal ITI, at which mice performed at chance level (50%) and which was 6 min for the Rbp1−/− or Rxrγ−/− groups and 12 min for most WT mice with exception of two mice tested at 18 min. Four mice (two wild types and one of each knockout line), were excluded from testing since their latency to choose the arm during the retention phase exceeded 3 min in more than one trial/day on three consecutive days (exclusion criterion).
# For behavioral analysis, 9CDHROL and 9CDHBC were dissolved in ethanol, and then mixed with sunflower oil, so that the final solution contained 3% ethanol. Vehicle treatments consisted of 3% ethanol solution in sunflower oil. For memory studies treatments with 9CDHRA were administered by intraperitoneal injections at volume/weight ratio 3 ml/kg at 7 am and 7 hours before the beginning of testing. For tests with animal model of chronic social defeat, different treatments were administered by intraperitoneal injections at volume/weight ratio 3 ml/kg at 10 mg/kg for each substance between 5-6 pm every second day of stress protocol immediately after the stress session starting from day 1 of the stress protocol.
# as §5
# [7] = per os 40 mg/kg, 11 h after treatment
smiles,measurement,setting,value
"CC1=C(/C=C/C(C)=C\C=C\[C@@H](C)CC(=O)O)C(C)(C)CCC1 [(S)-9CDHRA, (9Z,13S)-13,14-Dihydroretinoic Acid]",binding to RXR LBD in ESI-MS,hRXRα LBD,lower affinity
same,binding to RAR LBD isotypes in ESI-MS,"hRARα, β and γ LBDs",bind to all RAR LBD isotypes
same,overlap in transcriptional changes with 9CRA,[1],about 80%
same,"expression of genes that are direct targets of RXR permissive heterodimers (LXR-RXR, PPAR-RXR) and RAR-RXR","[1]; 9CDHRA 10 μM, 9CRA 1 μM, LG268 100 nM, GW3965 1 μM, RSG 1 μM, GW1516 1 μM, AM580 100 nM",induced the expression of genes
"CC1=C(/C=C/C(C)=C/C=C/C(C)=C/CO)C(C)(C)CCC1 [ATROL, all-trans-retinol, reference compound]",ATROL levels in cells after treatment,[2]; 10^−6M,strongly and significantly increased ATROL levels
same,9CDHROL levels in cells after treatment,"[2]; 10^−6 M, 18 hours",no or just a weak increase; also recorded: weak significant increase
same,conversion to 9CDHRA,[2]; data not shown,not converted to 9CDHRA
same,ATROL levels in mouse organs after treatment,[3]; oral gavage 40 mg/kg,strongly and significantly increased ATROL levels
same,"9CDHRA levels in serum, brain and liver after treatment (conversion to 9CDHRA)",[3]; [7],significantly increased levels in brain and liver
same,"9CDHROL levels in serum, brain and liver after treatment",[3]; [7],did not increase
same,9CDHRA levels in cells after treatment (metabolism / accumulation),[4],not converted to 9CDHRA
"CC1=C(/C=C/C(C)=C/C=C/C(C)=C/C(=O)O)C(C)(C)CCC1 [ATRA, all-trans-retinoic acid]",immobility (despair) in the forced swim test,[5],reduced significantly immobility time
same,working memory in spontaneous alternation in the Y-maze,"Rbp1−/− and Rxrγ−/− mice; Rbp1−/− mice, ATRA 5 mg/kg, UVI2108 1 mg/kg, MA 5 mg/kg, DHA 1 mg/kg, TTNPB 5 mg/kg",normalised; also recorded: pro-mnemonic effects
same,working memory in spontaneous alternation in the Y-maze,"Rbp1−/− and Rxrγ−/− mice; Rxrγ−/− mice, same doses",not
same,working memory performance in DNMTP task,"[6]; Rbp1−/− mice, acute treatment, (R)-9CDHRA 1 or 2 mg/kg",reversed memory deficits
same,working memory performance in DNMTP task,[6]; Rxrγ−/− mice,remained ineffective
